What was measured:
[1] = test system: Gli transcriptional activity in pancreatic CSCs; experiment: Gli-responsive GFP/firefly luciferase reporter; type: cell-based, human
Procedure: (A) Pancreatic CSCs were treated with rottlerin (0-1 μM) for 24 h. The expression of Patched-1, Smo and Gli-2 was measured by qRT-PCR. […] (B) Pancreatic CSCs were transduced with Gli-responsive GFP/firefly luciferase viral particles (pGreen Fire1-Gli with EF1, System Biosciences). After transduction, culture medium was replaced and CSCs were treated with rottlerin (0-2 μM) for 24 h. Gli-responsive reporter activity was measured using a luciferase assay (Promega Corporation).
FIG. 40A and FIG. 40C are graphs and photographs showing the inhibition of components of sonic hedgehog pathway, Gli transcription and nuclear translocation by EGCG. (A) Inhibition of components of sonic hedgehog pathway and Gli transcription. Pancreatic CSCs were treated with EGCG (0-60 μM) for 36 h. The expression of Smothened (Smo), patched 1 (PTCH1), patched 2 (PTCH2), was measured by q-RT-PCR. […] (B) Inhibition of Gli1 and Gli2 expression and Gli transcription. Pancreatic CSCs were treated with EGCG (0-60 μM) for 36 h. The expression of Gli1 and Gli2 was measured by q-RT-PCR. Gli reporter activity. CSCs were transduced with Gli-responsive GFP/firefly luciferase viral particles (pGreen Fire1-Gli with EF1, System Biosciences). After transduction, culture medium was replaced and CSCs were treated with EGCG (0-60 μM) for 24 h. Gli-responsive reporter activity was measured by luciferase assay (Promega Corporation). […] Stained cells were mounted and visualized under a fluorescence microscope. Blue fluorescence of DAPI was changed to red color for a better contrast.
FIG. 42A and FIG. 42B show graphs showing quercetin synergizes with EGCG to inhibit self-renewal capacity, invasion, migration, and TCF/LEF and Gli transcriptional activities in pancreatic CSCs. […] Cell viability was measured by trypan blue assay. […] At the end of incubation period, colonies were counted. […] Cells invaded to the lower chambered were fixed with methanol, stained with crystal violet and counted. […] Cells migrated to the lower chambered were fixed with methanol, stained with crystal violet and counted. […] Apoptosis was measured by TUNEL assay. […]

[2] = test system: Pancreatic CSCs; experiment: caspase-3/7 activity; type: cell-based, human
Procedure: (A and B) Induction of apoptosis and activation of caspase-3/-7. Pancreatic CSCs were treated with rottlerin (0-2 μM) for 48 h, and apoptosis and caspase-3/-7 activity were measured by […] and colorometric assay, respectively. […] (C) Pancreatic CSCs were treated with rottlerin (0-1 μM) for 48 h, and the expression of Bcl-2, XIAP and Survivin was measured by qRT-PCR and normalized to GAPDH.
(A) Regulation of caspase-3/7 activity by EGCG. CSCs were treated with EGCG (0-60 μM) for 24 h, and caspase-3/7 activity was measured as per manufacturer's instructions. […] (B) Regulation of apoptosis by EGCG. CSCs were treated with EGCG (0-60 μM) for 48 h, and apoptosis was measured by TUNEL assay. […] (C) Regulation of apoptosis-related proteins. Pancreatic CSCs were treated with EGCG (0-60 μM) for 36 h. Real time PCR (q-RT-PCR) was performed to examine the expression of Bcl-2, survivin, XIAP, and GAPDH.

Compound | Gli transcriptional activity ([1]; EGCG 0-60 μM, 24 h, luciferase assay) | Gli transcriptional activity ([1]; EGCG 40 μM with or without quercetin 20 μM, 48 hrs, luciferase) | caspase-3/7 activity ([2]; EGCG 0-60 μM, 24 h) | Gli transcriptional activity ([1]; rottlerin 0-2 μM, 24 h, luciferase assay) | caspase-3/-7 activity ([2]; rottlerin 0-2 μM, 48 h, colorometric assay)
O=C(O[C@@H]1Cc2c(O)cc(O)cc2O[C@@H]1c1cc(O)c(O)c(O)c1)c1cc(O)c(O)c(O)c1 [EGCG, epigallocatechin gallate] | inhibited Gli transcriptional activity in a dose-dependent manner | inhibited | induced caspase-3/7 activity and apoptosis in pancreatic CSCs in a dose-dependent manner | – | –
CC(=O)c1c(O)c(C)c(O)c(Cc2c(O)c3c(c(C(=O)/C=C/c4ccccc4)c2O)OC(C)(C)C=C3)c1O [rottlerin] | – | – | – | inhibited Gli transcriptional activity in a dose-dependent manner | induced

— patent US20160374944A1, “COMPOSITIONS AND METHODS FOR TREATING AND PREVENTING CANCER BY TARGETING AND INHIBITING CANCER STEM CELLS” (priority 2011, published 2016)
